Reference: patent publication US20110212235A1, “ANTIMICROBIAL SALT SOLUTIONS FOR CHEESE PROCESSING APPLICATIONS” (priority 2006, published 2011)

Experiments:
L. monocytogenes [1] = experiment: L. monocytogenes kill in cold salt/acid/surfactant solutions; type: cell-based
Experimental: To study chilling brine application of the current embodiment, tests were run on 17% by weight solutions of formulas consisting of between 0.3% and 6.0% citric acid, between 50 and 500 ppm SLS, and between 94% and 99.7% sodium chloride. Test solutions were cooled to −7° C. and inoculated with several strains of L. monocytogenes.
An experiment was run to determine if solutions containing sodium chloride, sodium lauryl sulfate, and various acids would kill L. monocytogenes at cold temperatures. […] A 1.0 ml aliquot of this suspension was added to 100 ml of cold (−7° C.+2° C.) test solution and mixed well, providing an initial inoculum of 10^3 CFU/ml. The test solutions were incubated at −7° C.+/−2° C. for the duration of the experiment. At intervals of 0, 4, and 24 hours the L. monocytogenes populations in the test solutions were determined on Modified Oxford agar (MOX). MOX plates were incubated at 35° C.+/−2° C. for approximately 48 hours. Colonies were then counted and compared to the initial inoculum counts.
Each test solution was a 17% by weight solution of the listed formula prepared in soft water.
In another experiment, 17% by weight solutions of formulas containing various levels of sodium chloride, citric acid, and sodium lauryl sulfate were tested for effectiveness in killing L. monocytogenes at cold temperatures. The same test procedure was used as described above, except test solutions were plated on MOX with a Thin Agar Overlay of TSA (to aid in the recovery of injured cells).
In another experiment, two sets of solutions were tested. The first set (samples 1-12 in Table 10 below) was prepared in hard tap water and contained about 17.0% by mass of the formulation. These samples were inoculated with 10^3 CFU/ml L. monocytogenes by the same procedure as described above. A second set of samples was prepared from brine taken from a ready-to-eat meat processing operation. The recirculated brine had been used to chill packaged meat for one week. After a week of use the brine typically contains various types of aerobic psychotropic and mesophilic bacteria. This experiment was done in order to determine if the additives would kill the microorganisms naturally occurring in actual process brine from a plant. Since the spent chill brine samples already contained NaCl citric acid and/or SLS was added to provide an effective concentration of additive. One set of these samples (samples 13-17) were inoculated with 10^3 L. monocytogenes and the other set (samples 18-22) contained only the naturally occurring organisms in the spent chill brine. […] Other antimicrobials, such as quaternary ammonium compounds can lose significant activity in hard water, often necessitating further additives, such as EDTA as a chelating agent, to maintain antimicrobial activity.
Another set of experiments was done in order to determine the effectiveness of different acids and different types of surfactants in the antimicrobial salt formulations. In one experiment, test solutions containing ˜17% by weight of formulas containing various levels of sodium chloride, 100 ppm sodium lauryl sulfate, and various levels of different acids were tested for effectiveness in killing L. monocytogenes at cold temperatures. The same test procedure was used as described above (test solutions were plated on MOX TAL (Modified Oxford Medium with a Thin Agar Layer) with TSA). The controls were a solution of pure NaCl, a solution of a blend of 100 ppm SLS in NaCl, and a solution of a blend of 0.5% citric acid, 100 ppm SLS, and 99.5% NaCl.

[2] = pH and water activity of test solutions; type: physicochemical
L. monocytogenes [3] = experiment: L. monocytogenes challenge in hot dog plant chill brine at −20° C.; type: cell-based
Experimental: 1. Inoculate a separate tube containing approximately 10 ml of Brain Heart infusion (BHI) broth with the following L. monocytogenes strains: H2446 (CDC Global Standard), Scott A (serotype 4b), 12243 (serotype 1/2a), and two strains isolated from the environment of a cooked meat and poultry facility, designated WP1, and WP4. Incubate the tubes at least 5 days at 7-10° C.+/−2° C. 2. Assume the growth to be 10^9 cfu/ml. Serially dilute each culture in cold (˜7° C.). Butterfield's Phosphate Buffered Water (PBW) to 10^8 cfu/ml (1:10). Since five cultures of L. monocytogenes are being used as a cocktail, begin the dilution series using […] of each culture added to 99 ml of PBW. 3. Plate (−6, −7, −8) the diluted culture to get the starting count of the inoculum on Modified Oxford medium (MOX) using a thin agar overlay (TAL) technique (overlay with Trypticase Soy Agar [TSA]) to revive injured cells. 4. Add 1 ml of the diluted cocktail to 100 ml of cold test solution. 5. Mix the solutions well. 6. Determine the L. monocytogenes population at time 0 and 4 hours. Plate −1 (0.1 ml on 1 plate), −2, −3, and −4 dilutions using spread plates on MOX TAL with TSA. 7. Incubate the test solutions at test temperature for the duration of the experiment. 8. Incubate the MOX TAL with TSA plates at 20° C.+/−2° C. for 72+/−3 hours. Count representative colonies, which are black, and multiply by the dilution factor. […]

[4] = 17% by weight solution in soft water, −7° C., MOX
[5] = 17% by weight solution, −6.7° C., MOX with thin agar overlay
[6] = 17% by weight solution of the formula in soft water, Table 8

Compound: [Cl-].[Na+] [100% NaCl, sodium chloride, reference compound]
- L. monocytogenes, 24 (L. monocytogenes [1]; 24, about 17.0% of formulation in hard tap water): 1100 cfu/ml
- L. monocytogenes, 2 hr (L. monocytogenes [1]; 2 hr, about 17.0% of formulation in hard tap water): 1100 cfu/ml
- L. monocytogenes, 4 hr (L. monocytogenes [1]; [4]): 1250 CFU/ml
- L. monocytogenes, 4 hr (L. monocytogenes [1]; [5]): ~6250 CFU/ml
- L. monocytogenes, 24 hr (L. monocytogenes [1]; [4]): 1170 CFU/ml
- L. monocytogenes, 24 hr (L. monocytogenes [1]; [5]): 2290 CFU/ml
- L. monocytogenes, Time 0 (L. monocytogenes [1]; 17% by weight solution of the formula in soft water, −7° C., MOX): 1550 CFU/ml
- L. monocytogenes, Time 0 (L. monocytogenes [1]; 17% by weight solution, −6.7° C., MOX with thin agar overlay of TSA): ~7000 CFU/ml
- L. monocytogenes, Time 0 (L. monocytogenes [1]; about 17.0% of formulation in hard tap water (27 gpg), inoculated 10^3 CFU/ml): 760 cfu/ml
- Water Activity [2, 6]: 0.88
- pH [2, 6]: 7.88
- pH ([2]; 17% by weight solution of the formula, Table 9): 7.66

Compound: alcohol ethoxylate
- L. monocytogenes, Time 4 Hours (L. monocytogenes [1]; 4 hours, 17% by weight of formula of 99.7% sodium chloride, 0.3% citric acid, 500 ppm of listed surfactant, cold): 1 CFU/ml
- L. monocytogenes, Time 0 (L. monocytogenes [1]; 17% by weight of formula of 99.7% sodium chloride, 0.3% citric acid, 500 ppm of listed surfactant, cold): 1080 CFU/ml
- effectiveness at lower concentration (L. monocytogenes [3]; 12.5 ppm in the hot dog plant brine): as effective as 50 ppm
- kill of L. monocytogenes inoculum (L. monocytogenes [3]; 50 ppm, within 4 hours, −20° C., hot dog plant brine): ~5 log
